Read-outs that look alike come from different tables or passages of the source.
Legend:
Assay in all cases: microbe, parasite or virus in culture
Type in all cases: cell-based
[1] = system: HCV 1a RLuc cells (dicistronic genotype 1a H77 replicon, RLuc reporter); conditions: Hepatitis C virus, read-out: 1a
Method in brief: (§1)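 Replicons used: genotype 1b Con1, 1a H77, 2a JFH-1, and a 2a JFH-1 chimera with J6-strain NS5A (M31 present), all dicistronic.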

[2] = system: HCV 1b RLuc cells (dicistronic genotype 1b Con1 replicon, RLuc reporter); conditions: Hepatitis C virus, read-out: 1b (nM)
Method in brief: as §1

[3] = system: HCV 2a JFH-1 Rluc cells (dicistronic genotype 2a JFH-1 replicon, RLuc reporter); conditions: Hepatitis C virus, genotype 2a JFH-1 replicon, read-out: 2a JFH
Method in brief: as §1

[4] = system: HCV 3a RLuc cells (NS5A chimeric genotype 1b Con1 replicon with consensus genotype 3a NS5A gene); conditions: Hepatitis C virus
Method in brief: (§2)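 Replicon cells stably carrying the listed RLuc-encoding dicistronic replicons were seeded and treated with DMSO serial dilutions of compound (10 mM stocks) diluted into culture medium. After 72 h, cells were lysed and Renilla luciferase activity measured. EC50 was derived by non-linear regression.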

[5] = system: HCV 4a Rluc cells (NS5A chimeric genotype 1b Con1 replicon with genotype 4a NS5A gene); conditions: Hepatitis C virus, read-out: 4a
Method in brief: as §2

[6] = read-out: 3a, genotype 3a replicon
[7] = genotype 1a H77 replicon, RLuc reporter
[8] = read-out: 3a, genotype 3a NS5A chimeric 1b Con1 replicon
[9] = 72 h, Table 2, genotype 1a H77 replicon, 72 hours
[10] = read-out: 3a, Table 2, genotype 3a NS5A chimeric replicon

## COC(=O)N[C@H](C(=O)N1CCC[C@H]1c1nc2ccc3cc(-c4ccc(-c5cnc([C@@H]6CCCN6C(=O)[C@H](NC(=O)OC)c6ccccc6)[nH]5)cc4C#CC4CC4)ccc3c2[nH]1)C(C)C [Example 351]
[1]; genotype 1a replicon
  EC50: 0.001 to 0.999 nM
[2]
  EC50: 0.008 nM
[3]
  EC50: 0.001 to 0.999 nM
[4]; [6]
  EC50: 0.001 to 0.99 nM
[5]
  EC50: 0.001 to 0.99 nM

## COC(=O)N[C@H](C(=O)N1CCC[C@H]1c1ncc(-c2ccc3cc(-c4ccc(-c5cnc([C@@H]6CCCN6C(=O)[C@@H](NC(=O)OC)[C@@H](C)OC(C)(C)C)[nH]5)cc4)ccc3c2)[nH]1)C(C)C [Example 265]
[1]; [7]
  EC50: 1 to 44 nM
[2]
  EC50: 0.042 nM
[3]; RLuc reporter
  EC50: 1 to 44 nM
[4]; [8]
  EC50: 1 to 4.99 nM
[5]
  EC50: 0.001 to 0.99 nM

## COC(=O)N[C@H](C(=O)N1CCC[C@H]1c1ncc(-c2ccc3cc(-c4ccc(-c5cnc([C@@H]6CCCN6C(=O)[C@@H](NC(=O)OC)[C@H](C)OC)[nH]5)cc4)ccc3c2)[nH]1)C(C)C [Example 241]
[1]; [7]
  EC50: 0.001 to 0.999 nM
[2]
  EC50: 0.011 nM
[3]; RLuc reporter
  EC50: 1 to 44 nM
[4]; [8]
  EC50: 1 to 4.99 nM
[5]
  EC50: 0.001 to 0.99 nM

## COC(=O)N[C@H](C(=O)N1CCC[C@H]1c1nc2ccc3cc(-c4ccc5cc(-c6cnc([C@@H]7CCCN7C(=O)[C@H](NC(=O)C(C)(C)O)c7ccccc7)[nH]6)ccc5c4)ccc3c2[nH]1)C(C)C [Example 287]
[1]; [7]
  EC50: 0.001 to 0.999 nM
[2]
  EC50: 0.006 nM
[3]; RLuc reporter
  EC50: 0.001 to 0.999 nM
[4]; [8]
  EC50: 0.001 to 0.99 nM
[5]
  EC50: 0.001 to 0.99 nM

## COC(=O)N[C@H](C(=O)N1CCC[C@H]1c1ncc(-c2ccc3c(c2)CCc2cc(-c4cnc([C@@H]5[C@H]6CC[C@H](C6)N5C(=O)[C@@H](NC(=O)OC)C5CCOCC5)[nH]4)ccc2-3)[nH]1)C1CCOCC1 [Example 79]
[1]; [9]
  EC50: 0.001 to 0.999 nM
[2]; 72 h
  EC50: 0.231 nM
[3]; 72 h, Table 2, 72 hours
  EC50: 0.001 to 0.999 nM
[4]; [10]
  EC50: 0.001 to 0.99 nM
[5]
  EC50: 0.001 to 0.99 nM

## COC(=O)N[C@H](C(=O)N1CCC[C@H]1c1nc(-c2ccc3cc(-c4ccc5c(ccc6nc([C@@H]7CCCN7C(=O)[C@H](NC(=O)OC)c7ccccc7)[nH]c65)c4)sc3c2)c[nH]1)[C@H](C)OC [Example 257]
[1]; [7]
  EC50: 0.001 to 0.999 nM
[2]
  EC50: 0.013 nM
[3]; RLuc reporter
  EC50: 0.001 to 0.999 nM
[4]; [8]
  EC50: 0.001 to 0.99 nM
[5]
  EC50: 0.001 to 0.99 nM

## COC(=O)N[C@H](C(=O)N1CCC[C@H]1c1ncc(-c2ccc3c4ccc(-c5cnc([C@@H]6CCCN6C(=O)[C@@H](NC(=O)OC)C6CCOCC6)[nH]5)cc4c4ccccc4c3c2)[nH]1)C(C)C [Example 293]
[1]; genotype 1a replicon
  EC50: 0.001 to 0.999 nM
[2]
  EC50: 0.042 nM
[3]
  EC50: 0.001 to 0.999 nM
[4]; [6]
  EC50: 0.001 to 0.99 nM
[5]
  EC50: 0.001 to 0.99 nM

## COC(=O)N[C@H](C(=O)N1CCC[C@H]1c1ncc(-c2ccc3cc(-c4ccc(-c5cnc([C@@H]6CC7(CN6C(=O)[C@H](NC(=O)OC)c6ccccc6)OCCO7)[nH]5)cc4)ccc3c2)[nH]1)C(C)C [Example 45]
[1]; [9]
  EC50: 0.001 to 0.999 nM
[2]; 72 h
  EC50: 0.014 nM
[3]; 72 h, Table 2, 72 hours
  EC50: 0.001 to 0.999 nM
[4]; [10]
  EC50: 1 to 4.99 nM
[5]
  EC50: 0.001 to 0.99 nM

## COC(=O)N[C@H](C(=O)N1CCC[C@H]1c1ncc(-c2ccc(-c3ccc(-c4[nH]c([C@@H]5CCCN5C(=O)[C@@H](NC(=O)OC)C(C)C)nc4Cl)cc3)cc2)[nH]1)C(C)C [Example 359]
[1]; genotype 1a replicon
  EC50: 0.001 to 0.999 nM
[2]
  EC50: 0.011 nM
[3]
  EC50: 0.001 to 0.999 nM
[4]; [6]
  EC50: 0.001 to 0.99 nM
[5]
  EC50: 0.001 to 0.99 nM

## COC(=O)N[C@H](C(=O)N1[C@@H]2C[C@@H]2C[C@H]1c1nc2ccc3cc(-c4ccc(-c5cnc([C@@H]6[C@H]7CC[C@H](C7)N6C(=O)[C@@H](NC(=O)OC)[C@@H](C)OC)[nH]5)cc4)ccc3c2[nH]1)C(C)C [Example 336]
[1]; genotype 1a replicon
  EC50: 0.001 to 0.999 nM
[2]
  EC50: 0.013 nM
[3]
  EC50: 0.001 to 0.999 nM
[4]; [6]
  EC50: 1 to 4.99 nM
[5]
  EC50: 0.001 to 0.99 nM

## COC(=O)N[C@@H](C(=O)N1CCC[C@H]1c1ncc(-c2ccc3c(c2)COc2c-3ccc3cc(-c4cnc([C@@H]5CCCN5C(=O)OCc5ccccc5)[nH]4)ccc23)[nH]1)c1ccccc1 [Example 5]
[1]; 72 h, Table 1, genotype 1a H77 replicon, 72 hours
  EC50: > 44 nM
[2]; 72 h
  EC50: 0.037 nM
[3]; 72 h, Table 1, 72 hours
  EC50: 1 to 44 nM
[4]; read-out: 3a, Table 1, genotype 3a NS5A chimeric replicon
  EC50: 0.001 to 0.99 nM
[5]
  EC50: 0.001 to 0.99 nM

## COC(=O)N[C@H](C(=O)N1CCC[C@H]1c1ncc(-c2ccc3cc(-c4ccc5c(ccc6nc([C@@H]7[C@H]8CC[C@H](C8)N7C(=O)[C@H](NC(=O)OC)c7ccccc7)[nH]c65)c4)ccc3c2)[nH]1)C(C)C [Example 326]
[1]; genotype 1a replicon
  EC50: 0.001 to 0.999 nM
[2]
  EC50: 0.005 nM
[3]
  EC50: 0.001 to 0.999 nM
[4]; [6]
  EC50: 1 to 4.99 nM
[5]
  EC50: 0.001 to 0.99 nM
